In a compilation of properties of binary mixtures (doi:10.1021/acs.jced.0c00618):

Experiment: xn = mol fraction of the nth substance listed
Settings: 101 kPa, x2 = 0.3209

CCCC[n+]1ccn(C)c1.O=S(=O)([O-])C(F)(F)F + NCCO
Settings | speed of sound [m/s] | viscosity [mPa·s]
298.15 K | 1428.8 | 41.99
303.15 K | 1417 | 34.4
308.15 K | 1405.2 | 28.38
313.15 K | 1393.2 | 23.76
318.15 K | 1382.1 | 20.13
323.15 K | 1370.6 | 17.25
328.15 K | 1359.2 | 14.94
333.15 K | 1348 | 13.05
